ChEMBL document CHEMBL1151523, “Synthesis of ()-6-(3-aminopropyloxy)methyl-4-demethoxy-6, 7-dideoxy-daunomycinone, a new dna intercalator related to anthracyclines” (Bioorg Med Chem Lett, 1995)

Assays:
Format in all cases: nucleic-acid assay, Bos taurus
Nucleic Acid [1] = assay: Binding affinity to Calf thymus DNA type XV; value ranges from 2E6 - 4E6 M-1
Nucleic Acid [2] = assay: Binding affinity to Calf thymus DNA type XV; value ranges from 1E4 - 3E4 M-1
Nucleic Acid [3] = assay: Binding affinity to Calf thymus DNA type XV
Nucleic Acid [4] = assay: Binding affinity to Calf thymus DNA type XV; value ranges from 4E6 - 6E6 M-1

`COc1cccc2c1C(=O)c1c(O)c3c(c(O)c1C2=O)C[C@@](O)(C(=O)CO)C[C@@H]3O[C@H]1C[C@H](N)[C@H](O)[C@H](C)O1` [DOXORUBICIN] showed a Ka (Nucleic Acid [1]) of 2000000 M⁻¹.
For `COc1cccc2c1C(=O)c1c(O)c3c(c(O)c1C2=O)C[C@@](O)(C(C)=O)C[C@@H]3O` [DAUNOMYCINONE], the Ka (Nucleic Acid [2]) was 10000 M⁻¹.
For `CC(=O)[C@@]1(O)CCc2c(c(O)c3c(c2COCCCN)C(=O)c2ccccc2C3=O)C1.Cl`, the Ka (Nucleic Acid [3]) was 61000 M⁻¹.
`COc1cccc2c1C(=O)c1c(O)c3c(c(O)c1C2=O)C[C@@](O)(C(C)=O)C[C@@H]3O[C@H]1C[C@H](N)[C@H](O)[C@H](C)O1.Cl` [DAUNORUBICIN HYDROCHLORIDE] was tested, and the Ka (Nucleic Acid [4]) was 4000000 M⁻¹.
